Laboratory results published in ChEMBL document CHEMBL1138623, “Synthesis and evaluation of aryl-substituted diarylpropionitriles, selective ligands for estrogen receptor beta, as positron-emission tomographic imaging agents” (Bioorg Med Chem, 2009).

Species: Homo sapiens
Test: Selectivity ratio of relative binding affinity for full-length human estrogen receptor beta to ratio of relative binding affinity for full length human estrogen receptor alpha

Compound | RBA
CC(c1ccc(O)cc1)C(C#N)c1ccc(O)cc1 (stereo unspecified) | 11%
N#CC(Cc1ccc(O)c(CCCF)c1)c1ccc(O)cc1 (stereo unspecified) | 45%
N#CC(Cc1ccc(O)c(Br)c1)c1ccc(O)cc1 (stereo unspecified) | 108%
N#CC(Cc1ccc(O)c(I)c1)c1ccc(O)cc1 (stereo unspecified) | 140%
N#CC(Cc1ccc(O)c(CCF)c1)c1ccc(O)cc1 (stereo unspecified) | 58%
N#CC(Cc1ccc(O)c(CO)c1)c1ccc(O)cc1 (stereo unspecified) | 19%
N#CC(c1ccc(O)cc1)C(CF)c1ccc(O)cc1 (stereo unspecified) | 21%

Further lines, results first:

RBA | Compound
272% | N#CC(Cc1ccc(O)c(F)c1)c1ccc(O)cc1 (stereo unspecified)
139% | Cc1cc(CC(C#N)c2ccc(O)cc2)ccc1O (stereo unspecified)
106% | N#CC(Cc1ccc(O)c(O)c1)c1ccc(O)cc1 (stereo unspecified)
112% | N#CC(Cc1ccc(O)c(Cl)c1)c1ccc(O)cc1 (stereo unspecified)
